This is an account of results in patent publication US5223526A, “Pyrazole carboxanilide fungicides and use” (Monsanto Company, priority 1992, dated 1993).

Assay [1] deals with T1, succinate dehydrogenase (Botrytis cinerea, UniProt A0A384J5E4+A0A384J8V8+A0A384JHJ5).
T1 construct: succinate-DCPIP reductase assay with KCN
The assay is described as follows: Enzyme inhibition: succinate dehydrogenase activity in Botrytis cinerea mitochondria (DCPIP reduction). The following applies: concentration required to inhibit the rate of DCPIP reduction by 50%; Botrytis cinerea isolate Nick mitochondria; read-out: I50 (μM conc.). The class given is biochemical. An outline of the steps: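 DCPIP (45 μM) reduction at 600 nm tracked with 17 mM succinate, 1 mM KCN and 50 mM potassium phosphate, pH 7.2. Compounds were added in acetone (final 1% v/v), and Botrytis cinerea isolate Nick mitochondrial fraction initiated the reaction. Rates minus endogenous activity gave percentage inhibition, plotted semilog against concentration to derive I50 (μM).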

Assay [2] relates to Botrytis cinerea Mitochondria. The following applies: 1 μM concentration; cited from earlier work.
Assay [3] relates to Rhizoctonia solani. The assay can be described thus: Rice sheath blight. The following applies: inoculated two days later, rated after 7 days, average of five plants; for Disease Control Rating at 0.5 mg/mL: foliage and soil sprayed with 0.5 mg/mL. Set-up: scale not given here. The class given is in vivo. Put shortly: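 Preventive test: R. solani inoculum on rice grain was applied at the plant base two days after spraying foliage and soil with Compound A (0.5, 0.1 or 0.02 mg/mL, water/acetone/Tween 20). Plants aged 11–15 days stood in flood trays; after 7 days at 25 °C and high humidity, disease control was rated against untreated plants, five plants averaged.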

Assay [4] has as its system Botrytis cinerea. The assay can be described thus: Vine grey mold (grape berries). The format is in vivo. The following applies: for pest or weed control at 50 ppm: read-out: % DISEASE CONTROL 50 ppm; for pest or weed control at 200 ppm: read-out: % DISEASE CONTROL 200 ppm. Put shortly:
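Preventive berry test: compound at 50 or 200 ppm (acetone/water, 0.05% Tween 20) applied one day before inoculation with 10^6 spores/mL Botrytis conidia. After 7-10 days at 20 °C under 12 h light, infected surface area rated; disease control expressed as percent reduction from control mean; repeated-test values averaged.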

Assay [5] deals with Botrytis cinerea. The assay can be described thus: Eggplant grey mold. The class given is in vivo. Also noted: scale not given here. The following applies: inoculated 24 h later, rated after 3-4 days; for Disease Control Rating at 500 ppm: eggplant sprayed with 500 ppm; for Disease Control Rating at 20 ppm: eggplant sprayed with 20 ppm; for Disease Control Rating at 100 ppm: eggplant sprayed with 100 ppm. Put shortly: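 Protective test: compound formulations (2:3 acetone:water, 0.5% Tween 20; 500, 100 or 20 ppm) sprayed on 14-18-day-old plants, with spore inoculum (4×10^6 spore/mL) applied a day later. Disease control rated on Botrytis lesions after 3-4 days at 23 °C and 100% humidity.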

The mark [6] stands for this setting: grape berries treated with 50 ppm, average of six berries, 7-10 days.
[7] abbreviates: grape berries treated with 200 ppm, average of six berries, 7-10 days.

Read-outs that look alike come from different tables or passages of the source.

T1 sequence (A0A384J5E4 1-300): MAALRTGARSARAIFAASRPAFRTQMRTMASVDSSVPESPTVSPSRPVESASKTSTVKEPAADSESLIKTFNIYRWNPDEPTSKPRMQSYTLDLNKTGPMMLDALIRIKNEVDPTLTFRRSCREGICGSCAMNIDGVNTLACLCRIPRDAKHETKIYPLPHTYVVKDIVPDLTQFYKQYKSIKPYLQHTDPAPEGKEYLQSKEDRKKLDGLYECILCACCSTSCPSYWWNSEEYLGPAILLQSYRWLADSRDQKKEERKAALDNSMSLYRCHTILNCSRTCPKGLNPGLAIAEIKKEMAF
T1 sequence (A0A384J8V8 1-189): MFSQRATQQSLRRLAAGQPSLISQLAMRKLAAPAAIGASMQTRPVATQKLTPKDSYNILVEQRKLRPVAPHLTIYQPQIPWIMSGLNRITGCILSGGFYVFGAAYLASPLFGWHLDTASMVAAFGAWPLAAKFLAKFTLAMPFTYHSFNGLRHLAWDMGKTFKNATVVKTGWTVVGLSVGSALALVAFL
T1 sequence (A0A384JHJ5 1-192): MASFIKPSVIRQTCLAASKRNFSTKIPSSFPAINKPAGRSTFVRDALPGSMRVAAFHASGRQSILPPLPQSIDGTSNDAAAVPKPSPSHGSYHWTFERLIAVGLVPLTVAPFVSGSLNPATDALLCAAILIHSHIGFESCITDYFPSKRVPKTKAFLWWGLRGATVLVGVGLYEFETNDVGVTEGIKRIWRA
T1 sequence (A0A384K456 1-647 partner): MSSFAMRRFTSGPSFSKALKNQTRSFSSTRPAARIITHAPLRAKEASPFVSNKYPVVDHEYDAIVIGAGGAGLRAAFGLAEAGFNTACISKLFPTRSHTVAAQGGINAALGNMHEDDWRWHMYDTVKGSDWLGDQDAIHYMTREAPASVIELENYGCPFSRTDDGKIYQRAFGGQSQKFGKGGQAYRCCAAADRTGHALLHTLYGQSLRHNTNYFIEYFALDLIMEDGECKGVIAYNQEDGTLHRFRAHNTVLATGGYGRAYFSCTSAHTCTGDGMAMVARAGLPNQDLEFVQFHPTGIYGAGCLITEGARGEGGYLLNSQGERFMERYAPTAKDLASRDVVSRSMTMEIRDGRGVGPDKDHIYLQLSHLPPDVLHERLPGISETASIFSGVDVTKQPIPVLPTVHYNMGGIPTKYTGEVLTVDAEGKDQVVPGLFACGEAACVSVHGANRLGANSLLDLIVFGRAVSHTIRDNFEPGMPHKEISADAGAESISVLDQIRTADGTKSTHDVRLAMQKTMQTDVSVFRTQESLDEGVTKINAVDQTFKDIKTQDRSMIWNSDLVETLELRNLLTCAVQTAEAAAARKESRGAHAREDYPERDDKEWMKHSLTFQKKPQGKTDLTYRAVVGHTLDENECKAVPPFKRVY

For the compound `CC1=C(C(=O)Nc2ccccc2)SCCO1` [Carboxin, carboxin, reference compound], in assay [1], the IC50 is 0.72 ± 0.3 µM. In addition, the “inhibition (respiratory inhibition)” value in assay [2] is recorded as 68%. In assay [3] (foliage and soil sprayed with 0.02 mg/mL), the “Disease Control Rating at 0.02 mg/mL” value is reported as 0. In addition, the “Disease Control Rating at 0.1 mg/mL” value in assay [3] (foliage and soil sprayed with 0.1 mg/mL) is given as 1. Further, the “Disease Control Rating at 0.5 mg/mL” value in assay [3] came out at 3. In assay [4], the pest or weed control at 50 ppm came to 0% and the pest or weed control at 200 ppm came out at 0%. Further, the “Disease Control Rating at 500 ppm” value in assay [5] is 0.

With `Cn1cc(C(=O)Nc2ccccc2CC2CCCCCC2)c(C(F)(F)F)n1` [Example 146, 1H-pyrazole-4-carboxamide, 1-methyl-N-[2-(cycloheptylmethyl)-phenyl]-3-(trifluoromethyl)-], the IC50 in assay [1] turned out to be 0.053 µM. Moreover, in assay [3], the “Disease Control Rating at 0.5 mg/mL” value turned out to be 1. Further, the pest or weed control at 50 ppm in assay [4] (setting [6]) amounted to 0%. In addition, the pest or weed control at 200 ppm in assay [4] (setting [7]) amounted to 0%. For the same compound, in assay [5], the “Disease Control Rating at 20 ppm” value was found to be 0, the “Disease Control Rating at 100 ppm” value amounted to 0 and the “Disease Control Rating at 500 ppm” value is 1.

For the compound `Cn1cc(C(=O)Nc2ccccc2C=C2CCCCCC2)c(C(F)F)n1` [Example 147, 1H-pyrazole-4-carboxamide, N-[2-(cycloheptylidenemethyl)phenyl]-1-methyl-3-(difluoromethyl)-], the IC50 in assay [1] came to 0.02 µM. Further, the “Disease Control Rating at 0.5 mg/mL” value in assay [3] was found to be 2. In addition, the pest or weed control at 50 ppm in assay [4] (setting [6]) amounted to 0%. The pest or weed control at 200 ppm in assay [4] (setting [7]) is 0%. Further, in assay [5], the “Disease Control Rating at 20 ppm” value was determined as 0, the “Disease Control Rating at 100 ppm” value stood at 0 and the “Disease Control Rating at 500 ppm” value is 0.

As to `CC1C=C(c2ccccc2NC(=O)c2cn(C)nc2C(F)(F)F)CC1` (stereo not shown) [Example 148, 1H-pyrazole-4-carboxamide, N-[2-(3-methyl-1-cyclopenten-1-yl)phenyl]-1-methyl-3-(trifluoromethyl)-], the IC50 in assay [1] amounted to 0.027 µM. In assay [3], the “Disease Control Rating at 0.5 mg/mL” value was 3. Moreover, in assay [4] (setting [6]), the pest or weed control at 50 ppm amounted to 37%. Moreover, the pest or weed control at 200 ppm in assay [4] (setting [7]) is 99%. Moreover, in assay [5], the “Disease Control Rating at 20 ppm” value was 0, the “Disease Control Rating at 100 ppm” value turned out to be 2 and the “Disease Control Rating at 500 ppm” value is given as 2.

On to `CC1CC=C(c2ccccc2NC(=O)c2cn(C)nc2C(F)F)C1` (stereo not shown) [Example 149, 1H-pyrazole-4-carboxamide, N-[2-(4-methyl-1-cyclopenten-1-yl)phenyl]-1-methyl-3-(difluoromethyl)-], for which, in assay [1], the IC50 is 0.013 µM. The “Disease Control Rating at 0.5 mg/mL” value in assay [3] is 3. Moreover, the pest or weed control at 50 ppm in assay [4] (setting [6]) stood at 95%. The pest or weed control at 200 ppm in assay [4] (setting [7]) was 100%. Also, in assay [5], the “Disease Control Rating at 20 ppm” value is on record as 0, the “Disease Control Rating at 100 ppm” value is 0 and the “Disease Control Rating at 500 ppm” value is given as 1.

Consider `CC1CC=C(c2ccccc2NC(=O)c2cn(C)nc2C(F)(F)F)C1` (stereo not shown) [Example 150, 1H-pyrazole-4-carboxamide, N-[2-(4-methyl-1-cyclopenten-1-yl)phenyl]-1-methyl-3-(trifluoromethyl)-], for which, in assay [1], the IC50 turned out to be 0.026 µM. For the same compound, the “Disease Control Rating at 0.5 mg/mL” value in assay [3] amounted to 3. In addition, in assay [4] (setting [6]), the pest or weed control at 50 ppm turned out to be 40%. In assay [4] (setting [7]), the pest or weed control at 200 ppm is 100%. Besides, in assay [5], the “Disease Control Rating at 20 ppm” value was 0, the “Disease Control Rating at 100 ppm” value is 0 and the “Disease Control Rating at 500 ppm” value amounted to 2.
